The numbers were not newly measured in patent US6159733A, “Method for photoinactivating malignant cells” (priority 1996, dated 2000), which cites them from elsewhere.

One data set deals with malignant cells. The settings on record: cited from earlier work.
For the next data set, the system named is cancer cell. The conditions noted are these: conditions of the CFU-GM/BFU-E survival data; cited from earlier work.
Another data set relates to CFU-GM. The settings on record: cited from earlier work.
In data set [1] the test system is cell lines in BM mixtures. The settings on record: cited from earlier work.
The next data set concerns BFU-E. The settings on record: cited from earlier work.
A further data set relates to pluripotent stem cells. The settings on record: Sieber, Photochem Photobiol. 46:71 (1987); cited from earlier work.
Data set [2] deals with multidrug resistance (mdr) pump. The settings on record: cited from earlier work.
A further data set has as its system cell types. The settings on record: cited from earlier work.
Where [3] appears, read: Atzpodien, Cancer Res. 46:4892 (1986).

Read-outs that look alike come from different tables or passages of the source.

Regarding `CCCCN1C(=O)C(=CC=CC=C2Oc3ccccc3N2CCCS(=O)(=O)O)C(=O)N(CCCC)C1=S` [MC 540, merocyanine-540], the “photoinactivation of malignant cells” value with malignant cells was “successfully achieved”. Further, in the data set with cancer cell, the “reduction of cancer cell survival” value was 4-5 log10. Moreover, the “surviving fraction of CFU-GM” value in the data set with CFU-GM (setting [3]) was 0.18; in the data set on CFU-GM (Gulliya, Blood 73:1059 (1989)), 0.17. The “photoinactivation of cell lines mixed with BM” value in data set [1] (BM fraction=0.95-0.99) was “more effectively inactivated in mixtures”. Moreover, the “surviving fraction of BFU-E” value was 0.14 in the data set with BFU-E (setting [3]) and 0.04 in the data set on BFU-E (Gulliya, Blood 73:1059 (1989)). Moreover, in the data set with pluripotent stem cells, the “depletion of murine pluripotent stem cells” value was 1 log10.

With `COc1ccc(CCN(C)CCCC(C#N)(c2ccc(OC)c(OC)c2)C(C)C)cc1OC` (stereo not drawn) [verapamil], the “inhibition of the multidrug resistance (mdr) pump” value in data set [2] is recorded as “known inhibitor”.

As to dihematoporphyrin ether [DHE], in the data set with malignant cells, the “photoinactivation of malignant cells” value was “successfully achieved”. Also, the “reduction of cancer cell survival” value in the data set on cancer cell is 4-5 log10. The “surviving fraction of CFU-GM” value is recorded as 0.29 in the data set on CFU-GM (Atzpodien, Blood 70:484 (1987)) and 0.05 in the data set with CFU-GM (Lemoli, Blood 81:793 (1993)). Moreover, the “surviving fraction of BFU-E” value is recorded as 0.47 with BFU-E (Atzpodien, Blood 70:484 (1987)) and 0.10 in the data set with BFU-E (Lemoli, Blood 81:793 (1993)).

As for “sulphonate aluminum phthalocyanine [AlSPc]”, in the data set on malignant cells, the “photoinactivation of malignant cells” value is recorded as “successfully achieved”. Further, in the data set on cancer cell, the “reduction of cancer cell survival” value is on record as 4-5 log10. For the same compound, in the data set with CFU-GM (cfu-gm), the “surviving fraction of CFU-GM” value is given as 0.60. Besides, the “photoinactivation of cell lines mixed with BM” value in data set [1] (BM fraction=0.99) is listed as “photoinactivated as effectively as unmixed cell lines”.

With “benzoporphyrinderivative monoacid ring A [BPD-MA]”, in the data set on cancer cell, the “reduction of cancer cell survival” value is recorded as 4-5 log10. Moreover, the “surviving fraction of CFU-GM” value in the data set on CFU-GM (cfu-gm) was 0.04. Moreover, the “surviving fraction of BFU-E” value in the data set with BFU-E (bfu-e) is 0.05.

Consider Photofrin, for which the “relation of uptake and photosensitivity” value in the data set with cell types (Williams, Photochem. Photobiol. 46:733 (1987)) is given as “increased uptake resulted in increased photosensitivity for each cell type”. For the same compound, the “differences in photoinactivation between cell types” value in the data set on cell types (despite significant differences in photosensitizer uptake) is listed as “marginal differences in photoinactivation”.
